Reference: US20120269790A1, “USE OF PLANT EXTRACTS AS PREBIOTICS, COMPOSITIONS AND FOODS CONTAINING SUCH EXTRACT” (priority 2009, published 2012)

Assays:
[1] = biological target: T1, alpha-amylase from pancreas of pig (Sus scrofa, UniProt P00690); test: In vitro inhibition of pig alpha-amylase; format: biochemical; conditions: 35 micrograms/ml; 100% = activity without inhibitor
T1 construct: alpha-amylase from pancreas of pig; purchased Sigma; host or cells: pig pancreas
T1 sequence (P00690 16-511): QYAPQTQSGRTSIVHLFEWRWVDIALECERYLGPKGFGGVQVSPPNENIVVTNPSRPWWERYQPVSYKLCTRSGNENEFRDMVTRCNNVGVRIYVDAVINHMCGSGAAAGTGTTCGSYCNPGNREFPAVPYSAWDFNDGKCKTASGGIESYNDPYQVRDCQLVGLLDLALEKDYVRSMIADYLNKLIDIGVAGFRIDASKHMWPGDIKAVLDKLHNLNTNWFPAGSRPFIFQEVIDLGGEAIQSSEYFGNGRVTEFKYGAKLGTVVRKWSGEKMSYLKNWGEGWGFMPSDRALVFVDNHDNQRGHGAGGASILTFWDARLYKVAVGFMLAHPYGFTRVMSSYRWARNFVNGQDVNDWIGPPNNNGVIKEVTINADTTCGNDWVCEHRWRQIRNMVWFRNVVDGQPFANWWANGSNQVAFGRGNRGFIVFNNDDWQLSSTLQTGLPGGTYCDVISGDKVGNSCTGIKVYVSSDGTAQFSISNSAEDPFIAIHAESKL
Method: The enzymes tested were obtained from the following sources: alpha-amylase from pancreas of pig and alpha-glucosidase from Saccharomyces cerevisiae (both purchased from Sigma) and alpha-glucosidase from pig (isolated from pig intestine according to Menakshy et al. 2008).
Measures alpha-amylase activity and alpha-glucosidase were carried out according to procedures supplied by Sigma acquired with enzymes. Briefly, the alpha-glucosidase activity was determined spectrophotometrically at 400 nm, with p-Nitrophenyl α-D-Glucoside (PNP) as substrate and alpha-amylase activity was determined spectrophotometrically at 540 nm, with soluble potato starch as substrate. As a positive control measurements were performed with acarbose as inhibitor.
For measures with pig alpha-amylase the positive control measures were with acarbose at 35 micrograms/ml, while the concentration of pomegranate extract tested was 250 micrograms/ml.

[2] = biological target: T2, 3-hydroxy-3-methylglutaryl-CoA reductase (HMGR) (Homo sapiens, UniProt P04035); test: In vitro HMGR activity (Sigma kit); format: biochemical; conditions: 500 nanomolar; 100% = activity without inhibitor
T2 construct: purchased Sigma
T2 sequence (P04035 426-888 limits assumed): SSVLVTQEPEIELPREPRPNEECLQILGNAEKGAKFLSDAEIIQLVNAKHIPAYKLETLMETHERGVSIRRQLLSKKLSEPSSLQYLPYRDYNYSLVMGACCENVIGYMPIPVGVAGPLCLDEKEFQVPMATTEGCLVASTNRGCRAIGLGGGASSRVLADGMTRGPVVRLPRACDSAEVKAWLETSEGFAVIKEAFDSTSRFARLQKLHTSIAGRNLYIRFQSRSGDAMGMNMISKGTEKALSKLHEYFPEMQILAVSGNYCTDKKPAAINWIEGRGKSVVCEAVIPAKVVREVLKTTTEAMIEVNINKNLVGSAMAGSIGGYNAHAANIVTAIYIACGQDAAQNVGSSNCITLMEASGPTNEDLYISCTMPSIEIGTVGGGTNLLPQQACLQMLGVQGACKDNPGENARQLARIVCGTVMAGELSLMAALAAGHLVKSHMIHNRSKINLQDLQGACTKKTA
Method: Measurements were performed in triplicate. In the case of HMGR concentration measurements used for positive control with pravastatin was 500 nanomolar, while the concentration of pomegranate extract tested was 100 micrograms/ml.

SMILES	% Pig alfa-amilase Activity [1]	% HMGR activity [2]
C[C@H]1O[C@H](O[C@H]2[C@H](O)[C@@H](O)[C@@H](O[C@H]3[C@H](O)[C@@H](O)C(O)O[C@@H]3CO)O[C@@H]2CO)[C@H](O)[C@@H](O)[C@@H]1N[C@H]1C=C(CO)[C@@H](O)[C@H](O)[C@H]1O (some centres unmarked) [acarbose]	41.2 ± 2.3%	–
CC[C@H](C)C(=O)O[C@H]1C[C@H](O)C=C2C=C[C@H](C)[C@H](CC[C@@H](O)C[C@@H](O)CC(=O)O)[C@H]21 [pravastatine, pravastatin]	–	9.7 ± 3.4%
